The term IC50 denotes the concentration at which inhibition is half-maximal. Low readings indicate higher potency, high ones lower potency. As usually defined, the inhibition is the share of the control response that was lost under treatment. Low readings indicate little suppression, high ones strong suppression.

The target of this assay is T1, rh beta tryptase (Homo sapiens, UniProt P20231).
T1 construct: purchased Promega
Briefly: Tryptase inhibition test (cleavage of N-p-tosyl-Gly-Pro-Lys-para-nitroaniline, p-nitroaniline measured at 405 nm). As to conditions: pH 7.4, 37° C.; for % Inhibition (10 μM) / inhibition at 10 µM: inhibition of rh beta tryptase at 10 μM test substance, substrate N-p-tosyl-Gly-Pro-Lys-para-nitroaniline 0.6 mM, 5 minutes; for IC50: concentration at which 50% of the tryptase enzyme activity is inhibited, substrate 0.6 mM. The class given is biochemical. A digest of the protocol: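 Recombinant human beta tryptase (0.91 U/ml) in 100 mM Tris HCl pH 7.4 with 5 mM calcium and 100 mg/ml heparin; compounds pre-incubated 5 min, then 0.6 mM tosyl-Gly-Pro-Lys-pNA added, 5 min at 37 °C. p-Nitroaniline read at 405 nm; % inhibition at 10 μM, IC50 determined when inhibition exceeded 70%.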

The structures appear in SMILES notation.

T1 sequence (P20231 31-275): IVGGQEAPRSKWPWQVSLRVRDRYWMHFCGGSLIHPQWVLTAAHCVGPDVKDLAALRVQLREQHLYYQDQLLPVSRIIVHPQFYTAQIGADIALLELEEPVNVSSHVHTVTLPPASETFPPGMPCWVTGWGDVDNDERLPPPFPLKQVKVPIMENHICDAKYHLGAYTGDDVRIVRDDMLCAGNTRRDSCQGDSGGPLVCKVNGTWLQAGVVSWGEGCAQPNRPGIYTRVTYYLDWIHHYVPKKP

In the case of `N=C(N)c1ccc(CCc2nc3cc(C(=O)N(Cc4ccc(Cl)cc4)Cc4ccc(CN)cc4)ccc3n2CC2CC2)cc1` [Example 186, 2-[2-(4-amidinophenyl)ethyl]-1-cyclopropylmethyl-benzimidazol-5-yl-carboxylic acid-N-[4-(amino-methyl)-benzyl]-N-(4-chlorbenzyl)-amide], the “% Inhibition (10 μM)” value came to 60%.
With `N=C(N)c1ccc(CCc2nc3cc(C(=O)N(Cc4ccc(Cl)cc4)Cc4ccc(CN)cc4)ccc3n2CCc2ccccc2)cc1` [Example 187, 2-[2-(4-amidinophenyl)ethyl]-1-(2-phenylethyl)-benzimidazol-5-yl-carboxylic acid-N-[4-(amino-methyl)-benzyl]-N-(4-chlorbenzyl)-amide], the “% Inhibition (10 μM)” value came to 63%.
On to `N=C(N)c1ccc(CCc2nc3cc(C(=O)N(Cc4ccc(Cl)cc4)Cc4ccc(CN)cc4)ccc3n2CCCN2CCOCC2)cc1` [Example 193, 2-[2-(4-amidinophenyl)ethyl]-1-[3-(morpholin-4-yl)-propyl]-benzimidazol-5-yl-carboxylic acid-N-[4-(amino-methyl)-benzyl]-N-(4-chlorbenzyl)-amide], for which the “% Inhibition (10 μM)” value was determined as 59%.
Take `N=C(N)c1ccc(CCc2nc3cc(C(=O)N(Cc4ccc(Cl)cc4)Cc4ccc(CN)cc4)ccc3n2CC2CCCO2)cc1` (centres unmarked) [Example 194, 2-[2-(4-amidinophenyl)ethyl]-1-(tetrahydrofuran-2-yl-methyl)-benzimidazol-5-yl-carboxylic acid-N-[4-(amino-methyl)-benzyl]-N-(4-chlorbenzyl)-amide]: the “% Inhibition (10 μM)” value was 61%.
Molecule `CCOCCCn1c(CCc2ccc(C(=N)N)cc2)nc2cc(C(=O)N(Cc3ccc(CN)cc3)Cc3cccc(C(F)(F)F)c3)ccc21` [Example 198, 2-[2-(4-amidinophenyl)ethyl]-1-(3-ethoxypropyl)-benzimidazol-5-yl-carboxylic acid-N-[4-(amino-methyl)-benzyl]-N-(3-trifluoromethylbenzyl)-amide] showed an IC50 of 458 nM and an inhibition at 10 µM of 63%.
The molecule `N=C(N)c1ccc(CCc2nc3cc(C(=O)N(Cc4ccc(CN)cc4)Cc4cccc(C(F)(F)F)c4)ccc3n2CCCNC(=O)Cc2ccccc2)cc1` [Example 200, 2-[2-(4-amidinophenyl)ethyl]-1-[3-(benzylcarbonylamino)-propyl]-benzimidazol-5-yl-carboxylic acid-N-[4-(amino-methyl)-benzyl]-N-(3-trifluoromethylbenzyl)-amide] came in with an inhibition at 10 µM of 69%.
For the molecule `N=C(N)c1ccc(CCc2nc3cc(C(=O)N(Cc4ccc(CN)cc4)Cc4cccc(C(F)(F)F)c4)ccc3n2CC2CC2)cc1` [Example 202, 2-[2-(4-amidinophenyl)ethyl]-1-cyclopropylmethyl-benzimidazol-5-yl-carboxylic acid-N-[4-(amino-methyl)-benzyl]-N-(3-trifluoromethylbenzyl)-amide], the IC50 is 822 nM and the inhibition at 10 µM came to 58%.
Consider `N=C(N)c1ccc(CCc2nc3cc(C(=O)N(Cc4ccc(CN)cc4)Cc4cccc(C(F)(F)F)c4)ccc3n2CCc2ccccc2)cc1` [Example 203, 2-[2-(4-amidinophenyl)ethyl]-1-(2-phenylethyl)-benzimidazol-5-yl-carboxylic acid-N-[4-(amino-methyl)-benzyl]-N-(3-trifluoromethylbenzyl)-amide], for which testing at 10 µM gave an inhibition of 53%.
In turn, `N=C(N)c1ccc(CCc2nc3cc(C(=O)N(Cc4ccc(CN)cc4)Cc4cccc(C(F)(F)F)c4)ccc3n2CCCN2CCOCC2)cc1` [Example 209, 2-[2-(4-amidinophenyl)ethyl]-1-[3-(morpholin-4-yl)-propyl]-benzimidazol-5-yl-carboxylic acid-N-[4-(amino-methyl)-benzyl]-N-(3-trifluoromethylbenzyl)-amide] yielded an inhibition at 10 µM of 61%.
For `N=C(N)c1ccc(CCc2nc3cc(C(=O)N(Cc4ccc(CN)cc4)Cc4cccc(C(F)(F)F)c4)ccc3n2CC2CCCO2)cc1` (centres unmarked) [Example 210, 2-[2-(4-amidinophenyl)ethyl]-1 (tetrahydrofuran-2-yl-methyl)-benzimidazol-5-yl-carboxylic acid-N-[4-(amino-methyl)-benzyl]-N-(3-trifluoromethylbenzyl)-amide], the inhibition at 10 µM was 59%.
On to `CCOCCCn1c(CCc2ccc(C(=N)N)cc2)nc2cc(C(=O)N(Cc3ccc(CN)cc3)Cc3ccccc3F)ccc21` [Example 214, 2-[2-(4-amidinophenyl)ethyl]-1-(3-ethoxypropyl)-benzimidazol-5-yl-carboxylic acid-N-[4-(amino-methyl)-benzyl]-N-(2-fluorobenzyl)-amide], for which half-maximal inhibition (IC50) required 335 nM and 10 µM produced 54% inhibition.
`N=C(N)c1ccc(CCc2nc3cc(C(=O)N(Cc4ccc(CN)cc4)Cc4ccccc4F)ccc3n2CCCNC(=O)Cc2ccccc2)cc1` [Example 216, 2-[2-(4-amidinophenyl)ethyl]-1-[3-(benzylcarbonylamino)-propyl]-benzimidazol-5-yl-carboxylic acid-N-[4-(amino-methyl)-benzyl]-N-(2-fluorobenzyl)-amide] gave an inhibition at 10 µM of 65%.
Turning to `N=C(N)c1ccc(CCc2nc3cc(C(=O)N(Cc4ccc(CN)cc4)Cc4ccccc4F)ccc3n2CCc2ccccc2)cc1` [Example 219, 2-[2-(4-amidinophenyl)ethyl]-1-(2-phenylethyl)-benzimidazol-5-yl-carboxylic acid-N-[4-(amino-methyl)-benzyl]-N-(2-fluorobenzyl)-amide], testing at 10 µM gave an inhibition of 51%.
The molecule `N=C(N)c1ccc(CCc2nc3cc(C(=O)N(Cc4ccc(CN)cc4)Cc4ccccc4F)ccc3n2CC2CCCO2)cc1` (centres unmarked) [Example 226, 2-[2-(4-amidinophenyl)ethyl]-1-(tetrahydrofuran-2-yl-methyl)-benzimidazol-5-yl-carboxylic acid-N-[4-(amino-methyl)-benzyl]-N-(2-fluorobenzyl)-amide] came in with an inhibition at 10 µM of 64%.
On to `CCOCCCn1c(CCc2ccc(C(=N)N)cc2)nc2cc(C(=O)N(Cc3ccc(CN)cc3)Cc3ccc4ccccc4c3)ccc21` [Example 230, 2-[2-(4-amidinophenyl)ethyl]-1-(3-ethoxypropyl)-benzimidazol-5-yl-carboxylic acid-N-[4-(amino-methyl)-benzyl]-N-(2-naphthylmethyl)-amide], for which half-maximal inhibition (IC50) required 153 nM and testing at 10 µM gave an inhibition of 61%.
Take `CCCCN(CCCC)CCCn1c(CCc2ccc(C(=N)N)cc2)nc2cc(C(=O)N(Cc3ccc(CN)cc3)Cc3ccc4ccccc4c3)ccc21` [Example 231, 2-[2-(4-amidinophenyl)ethyl]-1-(3-di-n-butylaminopropyl)-benzimidazol-5-yl-carboxylic acid-N-[4-(amino-methyl)-benzyl]-N-(2-naphthylmethyl)-amide]: the inhibition at 10 µM was determined as 54%.
For the molecule `N=C(N)c1ccc(CCc2nc3cc(C(=O)N(Cc4ccc(CN)cc4)Cc4ccc5ccccc5c4)ccc3n2CCCNC(=O)Cc2ccccc2)cc1` [Example 232, 2-[2-(4-amidinophenyl)ethyl]-1-[3-(benzylcarbonylamino)-propyl]-benzimidazol-5-yl-carboxylic acid-N-[4-(amino-methyl)-benzyl]-N-(2-naphthylmethyl)-amide], the inhibition at 10 µM was 58%.
For `N=C(N)c1ccc(CCc2nc3cc(C(=O)N(Cc4ccc(CN)cc4)Cc4ccc5ccccc5c4)ccc3n2CCC2CCCCC2)cc1` [Example 233, 2-[2-(4-amidinophenyl)ethyl]-1-(2-cyclohexylethyl)-benzimidazol-5-yl-carboxylic acid-N-[4-(amino-methyl)-benzyl]-N-(2-naphthylmethyl)-amide], the inhibition at 10 µM was determined as 53%.
In turn, `N=C(N)c1ccc(CCc2nc3cc(C(=O)N(Cc4ccc(CN)cc4)Cc4ccc5ccccc5c4)ccc3n2CC2CC2)cc1` [Example 234, 2-[2-(4-amidinophenyl)ethyl]-1-cyclopropylmethyl-benzimidazol-5-yl-carboxylic acid-N-[4-(amino-methyl)-benzyl]-N-(2-naphthylmethyl)-amide] came in with an IC50 of 760 nM.
As for `N=C(N)c1ccc(CCc2nc3cc(C(=O)N(Cc4ccc(CN)cc4)Cc4ccc5ccccc5c4)ccc3n2CCc2ccccc2)cc1` [Example 235, 2-[2-(4-amidinophenyl)ethyl]-1-(2-phenylethyl)-benzimidazol-5-yl-carboxylic acid-N-[4-(amino-methyl)-benzyl]-N-(2-naphthylmethyl)-amide], at 10 µM the inhibition was 52%.
On to `Cc1ccc(Cn2c(CCc3ccc(C(=N)N)cc3)nc3cc(C(=O)N(Cc4ccc(CN)cc4)Cc4ccc5ccccc5c4)ccc32)cc1` [Example 237, 2-[2-(4-amidinophenyl)ethyl]-1-(4-methylbenzyl)-benzimidazol-5-yl-carboxylic acid-N-[4-(amino-methyl)-benzyl]-N-(2-naphthylmethyl)-amide], for which at 10 µM the inhibition was 52%.
Molecule `N=C(N)c1ccc(CCc2nc3cc(C(=O)N(Cc4ccc(CN)cc4)Cc4ccc5ccccc5c4)ccc3n2CCCN2CCOCC2)cc1` [Example 241, 2-[2-(4-amidinophenyl)ethyl]-1-[3-(morpholin-4-yl)-propyl]-benzimidazol-5-yl-carboxylic acid-N-[4-(amino-methyl)-benzyl]-N-(2-naphthylmethyl)-amide] yielded an inhibition at 10 µM of 69%.
The molecule `N=C(N)c1ccc(CCc2nc3cc(C(=O)N(Cc4ccc(CN)cc4)Cc4ccc5ccccc5c4)ccc3n2CC2CCCO2)cc1` (centres unmarked) [Example 242, 2-[2-(4-amidinophenyl)ethyl]-1-(tetrahydrofuran-2-yl-methyl)-benzimidazol-5-yl-carboxylic acid-N-[4-(amino-methyl)-benzyl]-N-(2-naphthylmethyl)-amide] displayed an inhibition at 10 µM of 63%.
Molecule `CCOCCCn1c(CCc2ccc(C(=N)N)cc2)nc2cc(C(=O)N(CCN)Cc3cccc(OC)c3)ccc21` [Example 262, 2-[2-(4-amidinophenyl)ethyl]-1-(3-ethoxypropyl)-benzimidazol-5-yl-carboxylic acid-N-(2-aminoethyl)-N-(3-methoxybenzyl)-amide] returned an IC50 of 284 nM and an inhibition at 10 µM of 58%.

The record behind these values is patent publication US6512000B1, “Aminocarbonyl-substituted benzimidazoles having tryptase-inhibitory activity” (Boehringer Ingelheim Pharma KG, priority 1999, dated 2003).
